From ChEMBL document CHEMBL1125536, “Studies on neurokinin antagonists. 2. Design and structure-activity relationships of novel tripeptide substance P antagonists, N alpha-[N alpha-(N alpha-acetyl-L-threonyl)-N1-formyl-D-tryptophyl]-N- methyl-N-(phenylmethyl)-L-phenylalaninamide and its related compounds” (J Med Chem, 1992)
pIC50: −log10 of the molar value. Square brackets hold non-standard residues; d marks the D form. Peptide text beside a SMILES is read from it. * marks the point of attachment. Boc = CC(C)(C)OC(=O)*; OBn = c1ccc(CO*)cc1; For = O=C*

Species on record: Cavia porcellus
Test: Compound was tested for the inhibition of SP-induced contraction of isolated guinea pig trachea strips; call rule not given here
Type: functional

Row | pIC50 | Structure (SMILES)
1 | 5.64 | CC(=O)NC(C(=O)N[C@H](Cc1cn(C=O)c2ccccc12)C(=O)N[C@@H](Cc1ccccc1)C(=O)N(C)Cc1ccccc1)C(C)O (stereo partly drawn)

Biological target: not listed separately
Test: Inhibition of [3H]SP binding to guinea pig lung membranes

Row | Structure (SMILES) | pIC50
2 | CC(O)C(NC(=O)CCN)C(=O)N[C@H](Cc1cn(C=O)c2ccccc12)C(=O)N[C@@H](Cc1ccccc1)C(=O)N(C)Cc1ccccc1 (stereo partly drawn) | 7.00
3 | CC(=O)NC(Cc1c[nH]cn1)C(=O)N[C@H](Cc1cn(C=O)c2ccccc12)C(=O)N[C@@H](Cc1ccccc1)C(=O)N(C)Cc1ccccc1 (stereo partly drawn) | 7.00
4 | CC(=O)NC(C(=O)N[C@H](Cc1cn(C=O)c2ccccc12)C(=O)N[C@@H](Cc1ccccc1)C(=O)N(C)Cc1ccccc1)C(C)O (stereo partly drawn) | 8.24
5 | CC(O)C(NC(=O)N1CCOCC1)C(=O)N[C@H](Cc1cn(C=O)c2ccccc12)C(=O)N[C@@H](Cc1ccccc1)C(=O)N(C)Cc1ccccc1 (stereo partly drawn) | 7.70
6 | CC(=O)NC(CO)C(=O)N[C@H](Cc1cn(C=O)c2ccccc12)C(=O)N[C@@H](Cc1ccccc1)C(=O)N(C)Cc1ccccc1 (stereo partly drawn) | 7.30
7 | C[C@@H](O)[C@H](NC(=O)CN)C(=O)N[C@H](Cc1cn(C=O)c2ccccc12)C(=O)N[C@@H](Cc1ccccc1)C(=O)N(C)Cc1ccccc1 | 6.64
8 | CCN(CC)CCC(=O)NC(C(=O)N[C@H](Cc1cn(C=O)c2ccccc12)C(=O)N[C@@H](Cc1ccccc1)C(=O)N(C)Cc1ccccc1)C(C)O (stereo partly drawn) | 7.70
9 | CC(O)C(NC(=O)CO)C(=O)N[C@H](Cc1cn(C=O)c2ccccc12)C(=O)N[C@@H](Cc1ccccc1)C(=O)N(C)Cc1ccccc1 (stereo partly drawn) | 7.70
10 | CN(Cc1ccccc1)C(=O)[C@H](Cc1ccccc1)NC(=O)[C@@H](Cc1cn(C=O)c2ccccc12)NC(=O)C1CC(O)CN1C(=O)OC(C)(C)C (stereo partly drawn) | 6.70
11 | CC(O)C(N)C(=O)N[C@H](Cc1cn(C=O)c2ccccc12)C(=O)N[C@@H](Cc1ccccc1)C(=O)N(C)Cc1ccccc1 (stereo partly drawn) | 6.22

Results, then the compound that gave them:

Row | pIC50 | Structure (SMILES)
12 | 7.22 | CC(O)C(NC(=O)OC(C)(C)C)C(=O)N[C@H](Cc1cn(C=O)c2ccccc12)C(=O)N[C@@H](Cc1ccccc1)C(=O)N(C)Cc1ccccc1 (stereo partly drawn)
13 | 6.74 | CN(Cc1ccccc1)C(=O)[C@H](Cc1ccccc1)NC(=O)[C@@H](Cc1cn(C=O)c2ccccc12)NC(=O)CC(NC(=O)OC(C)(C)C)C(N)=O (stereo partly drawn)
14 | 7.32 | CN(Cc1ccccc1)C(=O)[C@H](Cc1ccccc1)NC(=O)[C@@H](Cc1cn(C=O)c2ccccc12)NC(=O)[C@H](CCC(N)=O)NC(=O)OC(C)(C)C
15 | 7.52 | CC(=O)NC(CCC(=O)N(C)C)C(=O)N[C@H](Cc1cn(C=O)c2ccccc12)C(=O)N[C@@H](Cc1ccccc1)C(=O)N(C)Cc1ccccc1 (stereo partly drawn)
16 | 6.07 | CC(C)(C)OC(=O)N[C@@H](CCC(N)=O)C(=O)N[C@H](Cc1cn(C=O)c2ccccc12)C(=O)N[C@@H](Cc1ccccc1)C(=O)NCc1ccccc1
17 | 6.54 | CC(O)C(C(=O)N[C@H](Cc1cn(C=O)c2ccccc12)C(=O)N[C@@H](Cc1ccccc1)C(=O)N(C)Cc1ccccc1)N(C)C(=O)OC(C)(C)C (stereo partly drawn)
18 | 6.37 | CC(C)(C)OC(=O)N[C@@H](CCC(N)=O)C(=O)N[C@H](Cc1cn(C=O)c2ccccc12)C(=O)N[C@@H](Cc1ccccc1)C(=O)CCc1ccccc1
19 | 7.40 | CN(C)C(=O)CCC(NC(=O)OC(C)(C)C)C(=O)N[C@H](Cc1cn(C=O)c2ccccc12)C(=O)N[C@@H](Cc1ccccc1)C(=O)N(C)Cc1ccccc1 (stereo partly drawn)
20 | 6.85 | CN(Cc1ccccc1)C(=O)[C@H](Cc1ccccc1)NC(=O)[C@@H](Cc1cn(C=O)c2ccccc12)NC(=O)C(Cc1c[nH]cn1)NC(=O)OC(C)(C)C (stereo partly drawn)
21 | 7.05 | CC(C)(C)OC(=O)N[C@@H](CCC(N)=O)C(=O)N[C@H](Cc1cn(C=O)c2ccccc12)C(=O)N[C@@H](Cc1ccccc1)C(=O)OCc1ccccc1 (Boc-Gln-[dW](For)-Phe-OBn)

Biological target: Substance-P receptor (Cavia porcellus, UniProt P30547)
Sequence (P30547 whole entry): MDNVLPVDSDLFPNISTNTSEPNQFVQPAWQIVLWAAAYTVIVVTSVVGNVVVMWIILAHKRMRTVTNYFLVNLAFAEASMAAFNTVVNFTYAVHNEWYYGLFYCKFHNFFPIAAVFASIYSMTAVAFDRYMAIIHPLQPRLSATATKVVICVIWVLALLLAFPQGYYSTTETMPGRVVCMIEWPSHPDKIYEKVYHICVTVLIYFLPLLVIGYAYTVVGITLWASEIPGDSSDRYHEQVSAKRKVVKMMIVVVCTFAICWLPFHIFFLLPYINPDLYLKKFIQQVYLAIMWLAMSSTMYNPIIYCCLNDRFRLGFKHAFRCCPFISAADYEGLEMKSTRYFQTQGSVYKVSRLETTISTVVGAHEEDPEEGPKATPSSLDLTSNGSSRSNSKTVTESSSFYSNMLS
Test: Compound was tested for the inhibition of [3H]SP binding to guinea pig lung membranes; Not active

Row | IC50 | Structure (SMILES)
22 | Not Active | CC(O)C(NC(=O)CCC(=O)O)C(=O)N[C@H](Cc1cn(C=O)c2ccccc12)C(=O)N[C@@H](Cc1ccccc1)C(=O)N(C)Cc1ccccc1 (stereo partly drawn)
23 | Not Active | CC(O)C(NC(=O)CCCC(=O)O)C(=O)N[C@H](Cc1cn(C=O)c2ccccc12)C(=O)N[C@@H](Cc1ccccc1)C(=O)N(C)Cc1ccccc1 (stereo partly drawn)
